Results as given in patent US10675273B2, “Benzothiazole amphiphiles” (The Regents of the University of California, priority 2016, dated 2020).

How the values were obtained:
[1] = tested on: RasGRF1; experiment: Western blot analysis of RasGRF1 expression; assay type: cell-based, human; settings: differentiated SH-SY5Y cells; for increase in RasGRF1 expression compared to untreated cells: 5 μM, 24 h, normalized to β-tubulin
Experimental: Western Blot Analysis of Ras-GRF1 Expression in SH-SY5Y Cells Exposed to BAMs 1-3 or BTA-EG6. Differentiation of SH-SY5Y cells was performed according to a previously described procedure. Briefly, cells were differentiated for 8 days by the addition of 10 μM all-trans-retinoic acid (RA) in the cell culture medium (1:1 EMEM and Ham's F12 supplemented with 10% FBS). Media with RA was changed every 2 days. After 8 days, the media was removed and new, RA-free media containing the sample solutions was added. Cells were exposed to solutions containing a final concentration of the BTA-E6 and BAMs (0, 1, or 5 μM) for 24 hours at 37° C. Cells were than lysed with NP-40 buffer with protease inhibitor (Roche, ref #05892791001) and protein concentration was determined by BCA assay (Pierce BCA Assay Kit, #23225). Proteins were separated by SDS-PAGE (NUPAGE® 4-12% Bis-Tris gel, NUPAGE® MES SDS running buffer) followed by transfer onto nitrocellulose membrane (NOVEX®, LC2000). Membranes were blocked with 3% BSA in Tris-Buffered Saline with Tween 20 (TBST) for 1 h followed by incubation with primary antibodies in 3% BSA/TBST [mouse anti-RasGRF1 (BD 610149) and mouse anti-tubulin-β (Thermo MS1226-P)] overnight at 4° C. with shaking. Membranes were then washed with TBST (3×10 min) and then incubated with a TRITC labeled goat anti-mouse antibody (JAX 115-025-003) for 1 h at RT with shaking. After 1 h, the membranes were washed with TBST (6×5 min) and the proteins were visualized using a Typhoon 8600 variable mode imager (GE Healthcare). The density of each band was then quantified using ImageJ software as a percentage of control following normalization to β-tubulin.

[2] = tested on: human iPSC-derived neurons; experiment: Spine density of PSD95 puncta in 3-month differentiated NSC; assay type: cell-based; settings: 5 μM, control DMSO (0.1%)
Experimental: FIG. 10. Quantification of spine density of PSD95 puncta from 3-month differentiated NSC treated with compound or vehicle control The figure depicts neuron micrographs with staining for MAP2, PSD95 and composite under control and compound administration conditions. “Compound” refers to BAM3-EG6 (5 μM), as depicted in FIG. 1. “Control” refers to DMSO (0.1%). MAP2 is a marker for dendrites, and PSD95 is a marker for post-synaptic features. A histogram (below) depicts normalized PSD95 puncta under control and compound administration conditions. It is observed that […] increases spine density by about 50% compared to control in human iPSC-derived neurons.
FIG. 10 depicts quantification of spine density of PSD95 puncta from 3-month differentiated NSC treated with compound or vehicle control. It is observed that BTA-EG4 analog (e.g., those depicted in FIG. 1) increases spine density by about 50% compared to control in human iPSC-derived neurons.

[3] = tested on: rat primary hippocampal neurons; experiment: Dendritic spine density and morphology in primary hippocampal neurons; assay type: cell-based; settings: 24 h exposure, versus vehicle control (0.1% DMSO)
Experimental: Neuronal Cultures. Rat dissociated hippocampal neurons from postnatal day 1 were plated at a density of 45,000 cells/cm^2 onto poly-D-lysine-coated coverslips. Neurons were maintained in B27 supplemented Neurobasal media (Invitrogen) until days in vitro (DIV) 18-23 as previously described.
Neuronal Treatments. For all neuronal treatments the following general protocol was followed: Briefly, 18-23 DIV rat dissociated hippocampal neurons were dosed with various concentrations (0-50 μM final concentration) of BAMs 1-3 or BTA-EGx (with 0.1% final DMSO concentration) for various times (24-72 h depending on the experiment). After dosing and at the desired time point, the media was removed and cells were rinsed with PBS-MC (phosphate-buffered saline, 1 mM MgCl2 and 0.1 mM CaCl2). Following rinsing, cells were fixed with 4% paraformaldehyde (PFA)/sucrose in PBS for 10 min at RT. […]
Confocal Microscopy and Dendritic Spine Analysis. […] Imaged dendrites were straightened using ImageJ, and spine density was the number of manually counted spines divided by dendrite segment length. The analyzer was blind to treatment and statistical significance was determined between experimental conditions by either unpaired t tests (two groups) or by ANOVA and indicated post hoc multiple-comparison test (>2 experimental conditions).

[4] = previously reported [18,19], cited from earlier work
[5] = tested on: rat primary hippocampal neurons; settings: previously reported study [40]; cited from earlier work
[6] = tested on: SH-SY5Y human neuroblastoma cells; experiment: MTT cell viability assay; assay type: cell-based; settings: 24 h exposure, read-out: IC50 of toxicity
Experimental: Measurement of Cell Viability in the Presence of BAMs 1-3 and BTA-EG6. An MTT cell viability assay was performed as previously described. Briefly, SH-SY5Y cells were plated in a 96 well plate at a density of 50,000 cells/well in 100 μL of 1:1 Eagle's Minimum Essential Medium (EMEM) and Ham's F12, supplemented with 10% Fetal Bovine Serum (FBS). Cells were allowed to adhere overnight (37° C., 5% CO2) before dosing with 100 μL of various samples solutions of either BTA-EG6 or BAMs 1-3 with final concentrations (0-250 Cells were exposed to these solutions for 24 h at 37° C., 5% CO2. An MTT cell viability kit (ATCC, Product No: 30-1010K) was then used to determine cell viability. Briefly, 20 μL of the provided MTT reagent was added per well and cells were placed in the incubator for 3 h. The insoluble intracellular purple formazan was then dissolved by the addition of 100 μL of detergent reagent provided and let solubilize overnight at room temperature. The cell viability was determined by measuring the absorbance at 570 nm using a SPECTRAMAX® 190 microplate reader (Molecular Devices). All results are presented as percent reduction of MTT relative to untreated cells (100% viability), and all wells were blanked with absorbance values from the wells containing media, MTT reagent and detergent only.

[7] = tested on: rat primary hippocampal neurons; experiment: Rescue of Aβ-induced spine loss; assay type: cell-based; settings: 1 μM Aβ (1-42) plus 1 or 5 μM compound, 3 days
[8] = Fluorescence emission spectra in water, octanol and aqueous liposome suspension (membrane partitioning); assay type: physicochemical; settings: 50 μM compound, DiPhyPC liposomes
Experimental: Measurement of Fluorescence Emission Spectra. The emission spectra of benzothiazoles in different environments was evaluated as previously described. Briefly, BAMs 1-3 and BTA-EG6 were diluted to a final concentration of 50 μM in deionized H2O, pure octanol, and a liposome suspension. The liposomes were prepared from a total lipid concentration of 10 mM of DiPhyPC in water by the gentle dehydration rehydration method followed by tip sonication. 200 μL of each sample was transferred to a cuvette (Hellma® Analytics, Quartz […]® (QS), 10 mm) and the fluorescence emission spectrum was measured in a PTI spectrofluorometer (0.5 nm step size) in water, octanol and an aqueous liposome suspension for BAMs 1-3 and BTA-EG6. Maximal excitation and emission values (λmax) for all compounds were as follows: BTA-EG6 (Ex/Em 355/420 nm), BAM1-EG6 (Ex/Em 355/420 nm), BAM2-EG6, (Ex/Em 365/428 nm), and BAM3-EG6 (Ex/Em 335/398 nm). Each experiment was repeated at least three separate times and error bars denote standard deviation from the mean. Data was processed using ORIGIN® 7.0 (MicroCal Software, Inc., Northampton, Mass.).

Structure (SMILES): OCCOCCOCCOCCOCCOCCSc1ccc(-c2nc3ccccc3s2)cc1 [BAM3-EG6, 17-((4-(benzo[d]thiazol-2-yl)phenyl)thio)-3,6,9,12,15-pentaoxaheptadecan-1-ol]
- increase in RasGRF1 expression compared to untreated cells [1]: 70%

Structure (SMILES): Cc1ccc2nc(-c3ccc(NCCOCCOCCOCCO)cc3)sc2c1 [BTA-EG4]
- increase in spine density (PSD95 puncta) compared to control [2]: about 50%
- effect on dendritic spine density (in words) [3]: observed increase in dendritic spine density over the vehicle control
- increase in RasGRF1 expression compared to untreated cells [1]: 20%
- effect on RasGRF1 expression levels (in words) ([1]; 1 or 5 μM / increasing concentrations): dose-dependent increase in RasGRF1 levels
- dendritic spine density in vivo ([4]; mice): phenotypic increase in dendritic spine density
- memory and learning in cognitive performance tests ([4]; wild-type mice and mouse model for AD): capability to improve memory and learning

Structure (SMILES): C[C@]12CC[C@@H]3c4ccc(O)cc4CC[C@H]3[C@@H]1CC[C@@H]2O [17β-estradiol]
- time required to induce maximal increase in spine density [5]: 96 h

Structure (SMILES): Cc1ccc2nc(-c3ccc(NCCOCCOCCOCCOCCOCCO)cc3)sc2c1 [BTA-EG6]
- IC50 [6]: 90 µM
- increase in RasGRF1 expression compared to untreated cells [1]: approximately 20%
- net increase in dendritic spine density compared to control [7]: ~20%
- spine density higher than in cells treated with Aβ (1-42) alone [7]: ~50%
- change of emission max (λmax) in aqueous liposome suspension from water, relative to λmax in pure octanol [8]: 50%
